Data as given in publication PMC12794274, “Therapeutic potential of Sheng-Xian-Tang in doxorubicin-induced chronic heart failure by regulation of phenylalanine metabolism disruption” (Chinese Medicine, 2026).
Read-outs that look alike come from different tables or passages of the source.

What was measured:
[1] = tested on: PAH activity in AML12 cells; assay type: cell-based; settings: BH4 10 μM; timosaponin B-II, neomangiferin, anemarrhenasaponin I 5, 10, 20 μM; timosaponin AIII 0.1, 0.2, 0.5 μM
Experimental: (§1) Serum biochemical parameters including brain natriuretic peptide (BNP), creatine kinase (CK), lactate dehydrogenase (LDH), alanine aminotransferase (ALT), and aspartate aminotransferase (AST) were measured using commercial ELISA kits (Nanjing Jiancheng Bioengineering Institute, Nanjing, China) according to the manufacturer’s instructions. Superoxide dismutase (SOD), and malondialdehyde (MDA) levels in liver and heart tissues were measured using assay kits from Aifang Biotechnology (Changsha, China). Phenylalanine and tyrosine concentrations in the cell were determined using an ELISA kit from Abmart (Shanghai, China).
(§2) Mouse hepatocellular cell lines (AML12), purchased from the Shanghai Cell Bank of Chinese Academy of Sciences (Shanghai, China), were cultured in Dulbecco’s Modified Eagle Medium (DMEM) supplemented with 10% fetal bovine serum (FBS) and 2 mM L-glutamine and 1% pyruvate and maintained at 37 °C in a […], 5% CO2 incubator. Cells were seeded at a density of 5 × 10^5 cells/well in 6-well plates. […] Cells’ survival rate was detected by Cell Counting Kit-8 (CCK8) Reagents (Thermo Scientific, Singapore).

[2] = biological target: Phenylalanine hydroxylase (PAH) protein (Homo sapiens, UniProt P00439); test: Surface Plasmon Resonance (SPR) analysis, Biacore T200; assay type: binding; settings: PAH immobilized on CM5 chip, read-out: dissociation constant (Kd)
Experimental: SPR assays were conducted using a Biacore T200 system (GE Healthcare Life Sciences, USA). Phenylalanine hydroxylase (PAH) protein was immobilized on CM5 sensor chips using an amine-coupling kit (BR100050, GE Healthcare) following standard procedures. […] Samples were injected over reference and PAH-immobilized flow cells at a flow rate of 30 μL/min, with 120 s contact time and 120 s dissociation time. Kinetic parameters were calculated using Biacore T200 evaluation software.

AML12 cells = test: AML12 cell viability (CCK8); assay type: cell-based
Experimental: as §2

[3] = tested on: cardiac tissues of DOX-induced CHF rats; test: Heart histopathology (H&E, Masson) and TUNEL apoptosis detection; assay type: in vivo, rat; settings: experiment II, co-treatment vs DOX group
Experimental: Cardiac tissues were fixed in 4% paraformaldehyde, embedded in paraffin, and sectioned at 4–5 μm thickness. Hematoxylin and eosin (H&E) staining was performed to assess histopathological changes, while Masson’s trichrome staining was used to evaluate cardiac fibrosis. Apoptosis in cardiac tissues was detected using a TUNEL assay kit (C1088, Beyotime, Shanghai, China).

DOX-induced CHF rats [4] = test: Oxidative stress in heart and liver tissue (SOD, MDA, ROS, PTGS2); assay type: in vivo, rat; settings: experiment II, co-treatment with DOX
Experimental: Immunofluorescence staining was performed on tissue sections to detect phenylalanine hydroxylase (PAH), prostaglandin-endoperoxide synthase 2 (PTGS2), and reactive oxygen species (ROS). Primary antibodies against PAH and PTGS2 were used, while ROS was detected using the DCFH-DA probe. Nuclei were counterstained with DAPI. Images were captured using a fluorescence microscope. Serum biochemical parameters including brain natriuretic peptide (BNP), creatine kinase (CK), lactate dehydrogenase (LDH), alanine aminotransferase (ALT), and aspartate aminotransferase (AST) were measured using commercial ELISA kits (Nanjing Jiancheng Bioengineering Institute, Nanjing, China) according to the manufacturer's instructions. Superoxide dismutase (SOD), and malondialdehyde (MDA) levels in liver and heart tissues were measured using assay kits from […] Biotechnology (Changsha, China). Phenylalanine and tyrosine concentrations in the cell were determined using an ELISA kit from Abmart (Shanghai, China).

[5] = tested on: phenylalanine hydroxylase (PAH); test: PAH expression in liver and heart (western blotting, immunofluorescence); assay type: in vivo, rat; settings: experiment II; DOX vs CON, co-treatments vs DOX
Experimental: Immunofluorescence staining was performed on tissue sections to detect phenylalanine hydroxylase (PAH), prostaglandin-endoperoxide synthase 2 (PTGS2), and reactive oxygen species (ROS). Primary antibodies against PAH and PTGS2 were used, while ROS was detected using the DCFH-DA probe. Nuclei were counterstained with DAPI. Images were captured using a fluorescence microscope.
Protein was extracted from liver or heart tissue samples (30 mg) using lysis buffer. Total protein concentration was determined using a BCA protein assay kit (Thermo Fisher Scientific, USA). Equal amounts of protein from each sample were separated on 10–12% SDS-PAGE gels and transferred to PVDF membranes. Membranes were blocked with quick blocking buffer for 30 min, then incubated with anti-PAH primary antibody (1:1000 dilution) overnight at 4 °C. After washing, membranes were incubated with a secondary antibody for 1 h at 37 °C. Protein bands were visualized using an Odyssey infrared imaging system (JS-1070, Shanghai Peiqing Science & Technology Co., Ltd, China). Band intensities were quantified using ImageJ software.

[6] = tested on: DOX-induced chronic heart failure (CHF) rat model; test: Echocardiography (LVEF%, LVFS%) in DOX-induced CHF rats; assay type: in vivo; settings: experiment II, DOX + Phe 280 mg/kg, BH4 14 mg/kg or SXT 16 g/kg vs DOX group
Experimental: Experiment I, 48 rats were randomly divided into six groups: (1) the CON group; (2) the DOX group; (3) the DOX + enalapril (ENP, positive control, 1.8 mg/kg) group; (4) the DOX + SXT at low dose group (4 g/kg); (5) the DOX + SXT at middle dose group (8 g/kg); and […] the DOX + SXT at high dose group (16 g/kg). Except those rats in the CON group, the remaining rats received DOX at a 2.5 mg/kg per injection to a cumulative dose of 15 mg/kg. The dose of SXT for the low-dose group was set at 4 g/kg, based on the minimum human clinical daily dose (48.5 g, Table S2) converted to an equivalent rat dose using body surface area normalization (48.5 g/70 kg × 6.3 ≈ 4.4 g/kg, rounded to 4 g/kg). To evaluate a clear dose–response relationship, the medium and high doses were established at 8 g/kg and 16 g/kg, respectively, corresponding to 2 fold and 4 fold the low dose. This gradient dosing strategy is consistent with the Technical Guidelines for Pharmacodynamic Studies of Traditional Chinese Medicine and the Technical Guidelines for General Pharmacology Studies of Traditional Chinese Medicine and Natural Drugs, and is further supported by our previous study on the effective dose range of SXT in a rat model of doxorubicin-induced chronic heart failure. Heart function was monitored by echocardiography analysis at day 39, and the CHF model was considered to be successfully established when the left ventricular ejection fraction (LVEF%) values were reduced to 50%. Urinary samples were collected at five time points (0, 10, 20, 30, and 39 d), while fecal samples were collected before the rats were euthanized. Subsequently, the rats were anesthetized, and blood samples and heart and liver tissues were collected. All bio-samples were stored at − 80 °C until analysis.
Experiment II was conducted to specifically confirm the exacerbated cardiac abnormality of phenylalanine in the DOX-induced CHF rats. […] Heart function was detected as in the experiment I.
Echocardiographic (ECG) measurements were performed using M-mode tracings and continuous Doppler with a Vevo 2100 system (Visual Sonics, Toronto, ON, Canada). Rats were anesthetized with isoflurane prior to imaging. Cardiac function indices including left ventricular ejection fraction (LVEF%) and left ventricular fractional shortening (LVFS%) were measured and recorded.

DOX-induced CHF rats [7] = test: Serum biochemical parameters (BNP, CK, LDH, ALT, AST) by ELISA kits; assay type: in vivo, rat; settings: experiment II, co-treatment vs DOX group
Experimental: as §1, with “manufacturer's” for “manufacturer’s”, “Aifang” left out

phenylalanine metabolism = test: Phenylalanine and tyrosine levels in rat serum, liver and heart tissues (LC/MS); assay type: in vivo; settings: experiment II, DOX + phenylalanine 280 mg/kg, BH4 14 mg/kg or SXT 16 g/kg
Experimental: Phenylalanine and tyrosine in the different rat bio-samples were analyzed by LC/MS using an Agilent 1290 Ultra high-performance liquid chromatography (UHPLC) and an Agilent 6460 triple-quadrupole tandem mass spectrometer (QQQ-MS) (Agilent Inc, USA). Data were acquired by using an Agilent Zorbax SB-C18 column (3.0 × 150 mm, 5 μm) as described previously.

heart tissues = test: Transmission electron microscopy of heart tissue; assay type: in vivo, rat; settings: experiment II; DOX alone, co-treatments vs DOX
Experimental: Freshly excised heart tissues were immediately fixed in 2.5% glutaraldehyde at 4 °C overnight. After washing with 0.1 M cacodylate trihydrate buffer, samples were post-fixed with 1% osmium tetroxide for 1 h. Tissues were then dehydrated through a graded ethanol series, incubated in acetone, and embedded in epoxy resin. Ultrathin sections were mounted on copper grids and imaged using a Hitachi HT7800 transmission electron microscope (Tokyo, Japan).

Phenylalanine hydroxylase (PAH) protein, sequence (P00439 whole entry): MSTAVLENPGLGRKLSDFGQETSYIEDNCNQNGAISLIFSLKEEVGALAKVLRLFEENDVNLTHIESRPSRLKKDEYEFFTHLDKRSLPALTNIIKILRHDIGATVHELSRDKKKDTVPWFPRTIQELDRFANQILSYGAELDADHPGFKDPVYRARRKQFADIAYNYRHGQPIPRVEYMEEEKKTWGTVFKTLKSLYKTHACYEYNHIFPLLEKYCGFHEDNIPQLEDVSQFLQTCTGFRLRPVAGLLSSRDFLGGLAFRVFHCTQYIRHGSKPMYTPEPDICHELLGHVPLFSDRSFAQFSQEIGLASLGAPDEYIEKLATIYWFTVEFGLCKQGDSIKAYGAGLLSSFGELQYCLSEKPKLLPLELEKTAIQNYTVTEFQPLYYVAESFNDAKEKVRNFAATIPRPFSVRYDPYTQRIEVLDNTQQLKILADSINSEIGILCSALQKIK

SMILES: CC(C)CCC1(O)O[C@H]2[C@H](O)[C@H]3[C@@H]4CC[C@@H]5C[C@@H](O[C@@H]6O[C@H](CO)[C@H](O)[C@H](O)[C@H]6O[C@@H]6O[C@H](CO)[C@@H](O)[C@H](O)[C@H]6O)CC[C@]5(C)[C@H]4CC[C@]3(C)[C@H]2[C@@H]1C (stereo partly drawn) [Anemarrhenasaponin I]
- phenylalanine levels in AML12 cells increased by DOX [1]: significantly reduce
- Kd [2]: < 10 µM
- non-cytoxic concentration (AML12 cells; AML12 cells): 5 to 20 µM

SMILES: CC(C)(O)[C@@H]1CC[C@](C)([C@H]2[C@@H](O)C[C@@]3(C)[C@@H]4C[C@H](O[C@@H]5O[C@H](CO)[C@@H](O)[C@H](O)[C@H]5O)[C@H]5C(C)(C)[C@@H](O[C@@H]6OC[C@@H](O)[C@H](O)[C@H]6O)CC[C@@]56C[C@@]46CC[C@]23C)O1 [Astragaloside IV]
- non-cytoxic concentration (AML12 cells; AML12 cells): 5 to 20 µM

SMILES: O=C(O)CCCCCCCC(=O)O [Azelaic acid]
- non-cytoxic concentration (AML12 cells; mouse): 5 to 20 µM

SMILES: C[C@H](O)[C@H](O)[C@H]1CNc2nc(N)[nH]c(=O)c2N1 [BH4, tetrahydrobiopterin]
- phenylalanine levels in AML12 cells increased by DOX [1]: markedly decreased
- DOX-induced cardiac injury and collagen accumulation (H&E and Masson) [3]: ameliorated
- ROS production and PTGS2 expression in the heart (DOX-induced CHF rats [4]): effectively attenuated
- PAH expression in heart tissue [5]: decreased
- PAH expression in liver tissue [5]: increased
- LVEF and LVFS / DOX-induced cardiac dysfunction [6]: partially alleviated
- Kd [2]: 10.7 µM
- DOX-induced increases in serum levels of BNP, CK, LDH, ALT and AST (DOX-induced CHF rats [7]): significantly inhibited
- serum phenylalanine concentration (phenylalanine metabolism): 46.9791 µM
- non-cytoxic concentration (AML12 cells; mouse): 5 to 20 µM
- mitochondrial ultrastructure of heart (electron microscopy) (heart tissues): reversed

SMILES: COc1ccc(-c2coc3cc(O[C@@H]4O[C@H](CO)[C@@H](O)[C@H](O)[C@H]4O)ccc3c2=O)cc1O [Calycosin-7-O-β-D-glucoside]
- non-cytoxic concentration (AML12 cells): 5 to 20 µM

SMILES: COc1ccc(-c2coc3cc(O)ccc3c2=O)cc1O [Calycosin]
- non-cytoxic concentration (AML12 cells; AML12 cells): 5 to 20 µM

SMILES: C[C@@H]1C[C@H]2O[C@@]3(O[C@@H]2C(C)(C)O)[C@H](O)[C@@]2(C)[C@@H]4CC[C@H]5C(C)(C)[C@@H](O[C@@H]6OC[C@@H](O)[C@H](O)[C@H]6O)CC[C@@]56C[C@@]46CC[C@]2(C)[C@@H]13 [Cimigenol xyloside]
- non-cytoxic concentration (AML12 cells; AML12 cells): 5 to 20 µM

SMILES: O=c1c(-c2ccc(O)cc2)coc2cc(O)ccc12 [Daidzein]
- non-cytoxic concentration (AML12 cells; mouse): 5 to 20 µM

SMILES: COc1ccc(-c2coc3cc(O)ccc3c2=O)cc1 [Formononetin]
- non-cytoxic concentration (AML12 cells; AML12 cells): 5 to 20 µM

SMILES: COc1ccc(/C=C/C(=O)O)cc1O [Isoferulic acid]
- non-cytoxic concentration (AML12 cells; AML12 cells): 5 to 20 µM

SMILES: COc1ccc(-c2coc3cc(O[C@@H]4O[C@H](CO)[C@@H](O)[C@H](O)[C@H]4O)ccc3c2=O)cc1 [Ononin]
- non-cytoxic concentration (AML12 cells; AML12 cells): 5 to 20 µM

SMILES: C[C@H]1CC[C@@]2(OC1)O[C@H]1C[C@H]3[C@@H]4CC[C@@H]5C[C@@H](O[C@@H]6O[C@H](CO)[C@H](O)[C@H](O)[C@H]6O[C@@H]6O[C@H](CO)[C@@H](O)[C@H](O)[C@H]6O)CC[C@]5(C)[C@H]4CC[C@]3(C)[C@H]1[C@@H]2C [Timosaponin A-III]
- phenylalanine levels in AML12 cells increased by DOX [1]: significantly reduce
- Kd [2]: < 10 µM
- non-cytoxic concentration (AML12 cells; mouse): 0.1 to 0.5 µM

SMILES: C[C@H]1CC[C@@]2(OC1)O[C@H]1C[C@H]3[C@@H]4CC[C@@H]5C[C@@H](O[C@@H]6O[C@H](CO)[C@H](O)[C@H](O)[C@H]6O[C@@H]6O[C@H](CO)[C@@H](O)[C@H](O)[C@H]6O)[C@@H](O)C[C@]5(C)[C@H]4CC[C@]3(C)[C@H]1[C@@H]2C [Timosaponin A-II]
- non-cytoxic concentration (AML12 cells; AML12 cells): 0.1 to 0.5 µM

SMILES: C[C@@H](CC[C@@]1(O)O[C@H]2C[C@H]3[C@@H]4CC[C@@H]5C[C@@H](O[C@@H]6O[C@H](CO)[C@H](O)[C@H](O)[C@H]6O[C@@H]6O[C@H](CO)[C@@H](O)[C@H](O)[C@H]6O)CC[C@]5(C)[C@H]4CC[C@]3(C)[C@H]2[C@@H]1C)CO[C@@H]1O[C@H](CO)[C@@H](O)[C@H](O)[C@H]1O [Timosaponin B-II]
- phenylalanine levels in AML12 cells increased by DOX [1]: significantly reduce
- Kd [2]: < 10 µM
- non-cytoxic concentration (AML12 cells; mouse): 5 to 20 µM
